Test results as given in patent US20170088520A1, “DEUBIQUITINASE INHIBITORS” (PharmAkea, Inc., priority 2014, published 2017).

Experiments:
Type in all cases: cell-based
[1] = target: T1, DUB activity in cells (NCI-H929, Z138, MM.1S, A375) (Homo sapiens, UniProt Q93008); assay: HA-Ubiquitin-Vinylsulfone (HA-Ub-VS) cell labeling assay; settings: compound tested at 5 μM; HA-Ub-VS labeling of USP9x in cells
T1 construct: endogenous in cells; host or cells: NCI-H929, Z138, MM.1S, A375
Protocol: Example B-1: HA-Ubiqutin-Vinylsulfone (HA-Ub-VS) Cell Labeling
Inhibitition of DUB activity is measured in cells (NCI-H929, Z138, MM.1S, A375) using a hemaglutinin-ubiquitin-vinylsulfone (HA-Ub-VS) labeling assay. Briefly, 1-2×10^6 cells are plated in 12-well plates in 1 ml complete growth media and 250 μl of test compound in 0.5% dimethylsulfoxide (or DMSO control) is added to each well. Plates are incubated at 37° C., 5% CO2 for 2-6 hours before cells are harvested into eppendorf tubes, washed once in PBS and resuspended in 100 μl cold lysis buffer (50 mM Tris pH 8, 150 mM NaCl, 0.5% NP-40, 2 mM phenylmethylsulfonyl fluoride and complete protease inhibitor tablet). Resupended cells are frozen on dry ice, then thawed and incubated on ice for 15 minutes. Tubes are centrifuged for 10 minutes at 14,000 rpm at 4° C. and the cleared supernatants transferred to clean tubes. […] The samples are incubated 15-60 min at 37° C. before the addition of SDS gel loading buffer. Proteins are separated by SDS-PAGE, transferred to nitrocellulose and the blot probed with anti-HA antibody and anti-β-actin antibodies. The HA and β-actin antibodies are detected using secondary antibodies coupled to IRdye 800 or IRdye 680 and visualized and quantitated using the LiCor Odyssey machine.
(§1) The following compounds were tested in the above assays at 5 μM: […]

[2] = tested on: Mcl-1 expression in cells (NCI-H929, Z138, MM.1S, A-375); assay: Analysis of Mcl-1 expression by Western blotting; settings: compound tested at 5 μM; Western blot
Protocol: (§2) Example B-2: Analysis of Md-1 Expression and PARP Cleavage
(§3) The ability of test compounds to decrease expression of the tumor promoting protein, Mcl-1, and to induce the inactivation/cleavage of the PARP protein is evaluated in cells (NCI-H929, Z138, MM.1S, A-375) by Western blotting. Cells are plated and treated as described in the HA-Ub-VS cell labeling assay (see above). A portion of the cleared lysate (15-50 μl) is run on an SDS-polyacrylamide gel to separate proteins and then transferred to nitrocellulose. After transfer to nitrocellulose, the proteins are detected by probing the blot with anti-Mcl-1 and anti-PARP antibodies followed by secondary antibodies coupled to IRdye 800 and IRdye 680 and visualization and quantitation using a LiCor Odyssey machine. Activity of the test compound is identified as a significant decrease in Mcl-1 expression relative to the vehicle treated cells and to the appearance of a cleaved fragment of PARP relative to the vehicle-treated cells.
as §1

[3] = tested on: PARP cleavage in cells (NCI-H929, Z138, MM.1S, A-375); assay: Analysis of PARP cleavage by Western blotting; settings: compound tested at 5 μM; Western blot
Protocol: as §2, §3, §1

T1 sequence (Q93008 whole entry): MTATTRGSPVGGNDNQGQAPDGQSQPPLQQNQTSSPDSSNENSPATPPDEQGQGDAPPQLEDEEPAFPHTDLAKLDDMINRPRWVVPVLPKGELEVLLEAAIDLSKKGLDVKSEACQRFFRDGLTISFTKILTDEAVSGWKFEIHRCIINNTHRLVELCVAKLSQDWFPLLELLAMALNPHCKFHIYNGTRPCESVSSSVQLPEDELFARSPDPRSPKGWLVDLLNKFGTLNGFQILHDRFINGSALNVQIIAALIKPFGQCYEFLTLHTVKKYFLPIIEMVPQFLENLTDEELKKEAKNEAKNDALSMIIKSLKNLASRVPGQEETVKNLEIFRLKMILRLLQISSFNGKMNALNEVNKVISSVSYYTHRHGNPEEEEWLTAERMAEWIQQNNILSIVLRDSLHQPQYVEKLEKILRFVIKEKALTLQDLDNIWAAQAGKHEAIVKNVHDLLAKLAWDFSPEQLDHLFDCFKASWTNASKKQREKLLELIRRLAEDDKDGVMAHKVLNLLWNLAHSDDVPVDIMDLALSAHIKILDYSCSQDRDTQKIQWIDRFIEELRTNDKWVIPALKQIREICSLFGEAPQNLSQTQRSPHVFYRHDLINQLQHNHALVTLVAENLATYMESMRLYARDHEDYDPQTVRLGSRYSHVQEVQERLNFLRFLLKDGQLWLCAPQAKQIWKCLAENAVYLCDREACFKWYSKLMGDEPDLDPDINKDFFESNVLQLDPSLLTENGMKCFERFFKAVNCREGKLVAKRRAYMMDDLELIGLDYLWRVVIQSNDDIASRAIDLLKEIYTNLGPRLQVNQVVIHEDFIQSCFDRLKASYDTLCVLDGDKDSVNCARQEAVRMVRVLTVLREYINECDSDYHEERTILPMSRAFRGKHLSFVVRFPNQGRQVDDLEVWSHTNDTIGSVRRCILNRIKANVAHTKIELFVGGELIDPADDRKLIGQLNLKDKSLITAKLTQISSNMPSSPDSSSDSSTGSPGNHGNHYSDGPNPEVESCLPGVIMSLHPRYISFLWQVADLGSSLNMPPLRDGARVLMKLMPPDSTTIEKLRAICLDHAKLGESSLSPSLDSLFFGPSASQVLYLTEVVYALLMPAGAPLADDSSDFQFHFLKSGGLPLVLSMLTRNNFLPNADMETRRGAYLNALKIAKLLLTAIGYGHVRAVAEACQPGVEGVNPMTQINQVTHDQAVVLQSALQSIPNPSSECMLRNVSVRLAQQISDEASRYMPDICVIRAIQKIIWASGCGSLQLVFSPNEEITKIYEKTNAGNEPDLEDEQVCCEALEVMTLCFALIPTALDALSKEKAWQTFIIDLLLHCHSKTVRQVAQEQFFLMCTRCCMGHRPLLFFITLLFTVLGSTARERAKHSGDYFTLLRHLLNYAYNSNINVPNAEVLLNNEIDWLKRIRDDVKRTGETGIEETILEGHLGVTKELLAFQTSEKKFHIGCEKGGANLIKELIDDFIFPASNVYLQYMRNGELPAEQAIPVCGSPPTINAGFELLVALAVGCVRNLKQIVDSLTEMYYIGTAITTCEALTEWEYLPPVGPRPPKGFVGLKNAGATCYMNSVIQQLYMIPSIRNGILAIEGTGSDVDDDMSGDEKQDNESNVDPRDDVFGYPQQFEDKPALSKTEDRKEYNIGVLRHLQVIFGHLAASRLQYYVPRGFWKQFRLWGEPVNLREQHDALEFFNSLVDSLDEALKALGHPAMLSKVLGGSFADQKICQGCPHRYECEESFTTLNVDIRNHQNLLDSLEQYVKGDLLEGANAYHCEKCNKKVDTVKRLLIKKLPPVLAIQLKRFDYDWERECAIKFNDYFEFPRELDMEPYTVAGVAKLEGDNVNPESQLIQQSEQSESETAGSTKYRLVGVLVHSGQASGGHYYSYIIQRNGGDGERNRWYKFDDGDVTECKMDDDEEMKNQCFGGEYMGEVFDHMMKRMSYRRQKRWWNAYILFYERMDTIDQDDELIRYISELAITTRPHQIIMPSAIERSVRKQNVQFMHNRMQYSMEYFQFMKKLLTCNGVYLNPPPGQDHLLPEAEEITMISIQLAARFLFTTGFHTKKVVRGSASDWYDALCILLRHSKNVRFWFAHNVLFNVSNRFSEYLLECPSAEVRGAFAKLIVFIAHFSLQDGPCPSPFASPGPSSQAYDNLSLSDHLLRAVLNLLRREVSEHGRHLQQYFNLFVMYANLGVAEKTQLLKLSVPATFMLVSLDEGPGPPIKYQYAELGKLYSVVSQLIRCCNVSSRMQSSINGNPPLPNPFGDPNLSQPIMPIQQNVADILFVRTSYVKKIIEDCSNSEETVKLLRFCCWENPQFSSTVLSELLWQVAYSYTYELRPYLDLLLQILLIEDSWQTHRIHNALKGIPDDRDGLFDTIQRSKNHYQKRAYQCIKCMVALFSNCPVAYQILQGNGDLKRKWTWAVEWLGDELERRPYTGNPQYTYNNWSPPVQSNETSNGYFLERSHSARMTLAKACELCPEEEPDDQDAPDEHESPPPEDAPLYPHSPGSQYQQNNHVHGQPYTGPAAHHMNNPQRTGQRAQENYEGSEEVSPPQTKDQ

Row | Structure (SMILES) | inhibition at 5 µM [1] [%] | inhibition at 5 µM [2] [%] | PARP cleavage % Inhibition [3]
1 | N#C/C(=C\c1cccc(-c2cccc(C(=O)O)c2)n1)C(=O)NC1(c2ccccc2)CCCC1 [Compound 71, (E)-3-(6-(2-cyano-3-oxo-3-((1-phenylcyclopentyl)amino)prop-1-en-1-yl)pyridin-2-yl)benzoic acid] | < 25 | < 25 | D (D is <25% inhibition)
2 | CCOc1ncc(C(F)(F)F)cc1-c1ccc(C2(NC(=O)/C(C#N)=C/c3ncc(Br)cc3Br)CCCC2)cc1 [Compound 54, (E)-2-cyano-3-(3,5-dibromopyridin-2-yl)-N-(1-(4-(2-ethoxy-5-(trifluoromethyl)pyridin-3-yl)phenyl)cyclopentyl)acrylamide] | < 25 | < 25 | C (C is 25% to 50% inhibition)
3 | CCOC(=O)c1ccc(-c2cccc(/C=C(\C#N)C(=O)NC3(c4ccccc4)CCCC3)n2)cc1 [Compound 31, (E)-ethyl 4-(6-(2-cyano-3-oxo-3-((1-phenylcyclopentyl)amino)prop-1-en-1-yl)pyridin-2-yl)benzoate] | 25 to 50 | < 25 | B (B is 50% to 75% inhibition)
4 | N#C/C(=C\c1ncc(Br)cc1Br)C(=O)NC1(c2ccc(-c3cccnc3)cc2)CCCC1 [Compound 39, (E)-2-cyano-3-(3,5-dibromopyridin-2-yl)-N-(1-(4-(pyridin-3-yl)phenyl)cyclopentyl)acrylamide] | 50 to 75 | ≥ 75 | A (A is ≧75% inhibition)
5 | N#C/C(=C\c1ncc(Br)cc1Br)C(=O)NC1(c2ccc(C(F)(F)F)cc2)CCCC1 [Compound 19, (E)-2-Cyano-3-(3,5-dibromopyridin-2-yl)-N-(1-(4-(trifluoromethyl)phenyl)cyclopentyl) acrylamide] | ≥ 75 | ≥ 75 | A (A is ≧75% inhibition)
6 | COc1ccc(/C=C(\C#N)C(=O)NC2(c3ccccc3)CCCC2)cc1O [Compound 14, (E)-3-(3-Hydroxy-4-methoxyphenyl)-2-cyano-N-(1-phenylcyclopentyl)acrylamide] | < 25 | < 25 | D (D is <25% inhibition)
7 | CC(C)(C)OC(=O)c1cc(-c2cccc(/C=C(\C#N)C(=O)NC3(c4ccccc4)CCCC3)n2)cnc1Cl [Compound 49] | ≥ 75 | ≥ 75 | A (A is ≧75% inhibition)
8 | N#C/C(=C\c1ncc(Br)cc1Br)C(=O)NC1(c2ccc(-c3ccc(N4CCOCC4)nc3)cc2)CCCC1 [Compound 51, (E)-2-cyano-3-(3,5-dibromopyridin-2-yl)-N-(1-(4-(6-morpholinopyridin-3-yl)phenyl)cyclopentyl)acrylamide] | 25 to 50 | 25 to 50 | A (A is ≧75% inhibition)
9 | COC(=O)c1cncc(-c2cccc(/C=C(\C#N)C(=O)NC3(c4ccccc4)CCCC3)n2)c1 [Compound 33] | 50 to 75 | ≥ 75 | A (A is ≧75% inhibition)

Continued, in another order:

Row | inhibition at 5 µM [1] [%] | Structure (SMILES) | inhibition at 5 µM [2] [%] | PARP cleavage % Inhibition [3]
10 | 25 to 50 | N#C/C(=C\c1cccc(Br)n1)C(=O)NC1(c2ccnc(F)c2)CCCC1 [Compound 3-7, (E)-3-(6-bromopyridin-2-yl)-2-cyano-N-(1-(2-fluoropyridin-4-yl)cyclopentyl)acrylamide] | < 25 | B (B is 50% to 75% inhibition)
11 | 50 to 75 | N#C/C(=C\c1ccc(Br)cn1)C(=O)NC1(c2ccccc2)CCCC1 [Compound 29, (E)-3-(5-bromopyridin-2-yl)-2-cyano-N-(1-phenylcyclopentyl)acrylamide] | < 25 | A (A is ≧75% inhibition)
12 | 50 to 75 | N#C/C(=C\c1cccc(Br)n1)C(=O)NC1(c2ccc(C#CC3(O)COC3)cc2)CCCC1 [Compound 75, (E)-3-(6-bromopyridin-2-yl)-2-cyano-N-(1-(4-((3-hydroxyoxetan-3-yl)ethynyl)phenyl)cyclopentyl)acrylamide] | ≥ 75 | A (A is ≧75% inhibition)
13 | ≥ 75 | N#C/C(=C\c1ncc(Br)cc1Br)C(=O)NC1(c2ccccc2)CCCCCC1 [Compound 25, (E)-2-Cyano-3-(3,5-dibromopyridin-2-yl)-N-(1-phenylcycloheptyl)acrylamide] | ≥ 75 | A (A is ≧75% inhibition)
14 | ≥ 75 | N#C/C(=C\c1cccc(Br)n1)C(=O)NC1(c2ccccc2)CCCC1 [Compound 1, (E)-3-(6-Bromopyridin-2-yl)-2-cyano-N-(1-phenylcyclopentyl)acrylamide] | ≥ 75 | A (A is ≧75% inhibition)
15 | 50 to 75 | N#C/C(=C\c1cccc(-c2ccc(C(F)(F)F)nc2)n1)C(=O)NC1(c2ccccc2)CCCC1 [Compound 64, (E)-2-cyano-N-(1-phenylcyclopentyl)-3-(6′-(trifluoromethyl)-[2,3′-bipyridin]-6-yl)acrylamide] | ≥ 75 | A (A is ≧75% inhibition)
16 | ≥ 75 | N#C/C(=C\c1ncc(Br)cc1F)C(=O)NC1(c2ccccc2)CCCC1 [Compound 9, (E)-3-(5-Bromo-3-fluoropyridin-2-yl)-2-cyano-N-(1-phenylcyclopentyl)acrylamide] | ≥ 75 | A (A is ≧75% inhibition)
17 | 50 to 75 | N#C/C(=C\c1cccc(Br)n1)C(=O)NC1(c2ccc(C#CCNCCO)cc2)CCCC1 [Compound 78, (E)-3-(6-bromopyridin-2-yl)-2-cyano-N-(1-(4-(3-((2-hydroxyethyl)amino)prop-1-yn-1-yl)phenyl)cyclopentyl)acrylamide] | < 25 | B (B is 50% to 75% inhibition)
18 | < 25 | N#C/C(=C\c1cccc(Br)n1)C(=O)NC1(c2ccccc2)CCOC1 (stereo not drawn) [Compound 80, (E)-3-(6-bromopyridin-2-yl)-2-cyano-N-(3-phenyltetrahydrofuran-3-yl)acrylamide] | < 25 | D (D is <25% inhibition)
19 | 25 to 50 | N#C/C(=C\c1cccc(Br)n1)C(=O)NC1(c2ccccc2)CCCCC1 [Compound 17, (E)-3-(6-Bromopyridin-2-yl)-2-cyano-N-(1-phenylcyclohexyl)acrylamide] | 50 to 75 | A (A is ≧75% inhibition)
20 | ≥ 75 | N#C/C(=C\c1cccc(Br)n1)C(=O)NC1(c2ccc(-c3cccnc3)cc2)CCCC1 [Compound 73, (E)-3-(6-bromopyridin-2-yl)-2-cyano-N-(1-(4-(pyridin-3-yl)phenyl)cyclopentyl)acrylamide] | ≥ 75 | A (A is ≧75% inhibition)
21 | < 25 | Cc1ccc(-c2ccc(C3(NC(=O)/C(C#N)=C/c4cccc(Br)n4)CCCC3)cc2)cc1CC(=O)O [Compound 98, (E)-2-(4′-(1-(3-(6-bromopyridin-2-yl)-2-cyanoacrylamido)cyclopentyl)-4-methyl-[1,1′-biphenyl]-3-yl)acetic acid] | < 25 | D (D is <25% inhibition)
